From PMC10561253, “2-NBDG Uptake in Gossypium hirsutum in vitro ovules: exploring tissue-specific accumulation and its impact on hexokinase-mediated glycolysis regulation” (Frontiers in Plant Science, 2023)

Test system: T1, GhHxk9
T1 construct: codon-optimized synthetic gene, E. coli BL21(DE3), pET-28-14His-bdSumo, tag cut off by bdSENP1, tagless wild-type; 51 kDa; printed residues: L398-K404 TLKDGEK, S132-R141 SEGLHFSPDR
Assay: coupled assay with E. coli glucose-6-phosphate dehydrogenase, absorbance at […] nm
Type: biochemical, Gossypium hirsutum
Settings: 1 mM ATP, 10 mM MgCl2, 1 mM NADP+, 100 mM Tris pH 7.5, 30 °C; read-out: apparent Km

SMILES: OC[C@H]1OC(O)[C@H](O)[C@@H](O)[C@@H]1O (stereo partly drawn) [D-glucose]
- Km: 37 ± 19.8 µM
